Assay: molar heat capacity at constant volume; xn = mol fraction of the nth substance listed
Conditions: Fluid (supercritical or subcritical phases), isochoric heat capacity, x1 = 0.2607

N [ammonia] + O
Conditions | molar heat capacity at constant volume [J/K/mol]
602.99 K, Mass density=227.54 kg/m3 | 102.11
602.99 K, Mass density=230.31 kg/m3 | 103.53
602.99 K, Mass density=311.19 kg/m3 | 92.66
602.99 K, Mass density=342.18 kg/m3 | 84.9
603.01 K, Mass density=218.92 kg/m3 | 92.95
603.08 K, Mass density=205.58 kg/m3 | 71.27
603.08 K, Mass density=214.83 kg/m3 | 91.92
603.08 K, Mass density=218.92 kg/m3 | 93.46
603.08 K, Mass density=224.53 kg/m3 | 102.11
603.08 K, Mass density=227.54 kg/m3 | 94.83
603.08 K, Mass density=230.31 kg/m3 | 97.85
603.08 K, Mass density=311.19 kg/m3 | 88.26
603.1 K, Mass density=214.83 kg/m3 | 85.33
603.16 K, Mass density=205.58 kg/m3 | 70.95
603.16 K, Mass density=227.54 kg/m3 | 89.2
603.16 K, Mass density=230.31 kg/m3 | 92.7
603.16 K, Mass density=311.19 kg/m3 | 87
603.17 K, Mass density=224.53 kg/m3 | 98.9
603.17 K, Mass density=243.98 kg/m3 | 88.9
603.17 K, Mass density=260.02 kg/m3 | 88.9
603.25 K, Mass density=205.58 kg/m3 | 73.52
603.25 K, Mass density=224.53 kg/m3 | 95.33
603.25 K, Mass density=227.54 kg/m3 | 90.78
603.25 K, Mass density=311.19 kg/m3 | 89.86
603.26 K, Mass density=230.31 kg/m3 | 91.49
603.26 K, Mass density=243.98 kg/m3 | 86.61
603.26 K, Mass density=260.02 kg/m3 | 86.61
603.33 K, Mass density=224.53 kg/m3 | 94.9
603.34 K, Mass density=205.58 kg/m3 | 69.68
603.34 K, Mass density=243.98 kg/m3 | 87.69
603.34 K, Mass density=260.02 kg/m3 | 87.69
603.42 K, Mass density=205.58 kg/m3 | 67.87
603.42 K, Mass density=224.53 kg/m3 | 95.2
603.42 K, Mass density=311.19 kg/m3 | 88.62
603.43 K, Mass density=243.98 kg/m3 | 88.17
603.43 K, Mass density=260.02 kg/m3 | 88.17
603.51 K, Mass density=205.58 kg/m3 | 72.19
603.51 K, Mass density=243.98 kg/m3 | 85.63
603.51 K, Mass density=260.02 kg/m3 | 85.63
603.58 K, Mass density=243.98 kg/m3 | 83.27
603.58 K, Mass density=260.02 kg/m3 | 83.27
603.59 K, Mass density=205.58 kg/m3 | 69.01
603.59 K, Mass density=227.54 kg/m3 | 89.22
603.6 K, Mass density=214.83 kg/m3 | 85.67
603.67 K, Mass density=230.31 kg/m3 | 84.99
603.68 K, Mass density=214.83 kg/m3 | 84.57
603.68 K, Mass density=227.54 kg/m3 | 87.34
603.69 K, Mass density=243.98 kg/m3 | 85.13
603.69 K, Mass density=260.02 kg/m3 | 85.13
603.76 K, Mass density=227.54 kg/m3 | 89.27
603.77 K, Mass density=214.83 kg/m3 | 81.81
603.77 K, Mass density=218.92 kg/m3 | 89.86
603.78 K, Mass density=243.98 kg/m3 | 82.7
603.78 K, Mass density=260.02 kg/m3 | 82.7
603.85 K, Mass density=224.53 kg/m3 | 94
603.85 K, Mass density=227.54 kg/m3 | 85.53
603.86 K, Mass density=218.92 kg/m3 | 86.91
603.86 K, Mass density=260.02 kg/m3 | 83.32
603.92 K, Mass density=214.83 kg/m3 | 84.57
603.93 K, Mass density=227.54 kg/m3 | 84.41
603.94 K, Mass density=224.53 kg/m3 | 94.9
603.94 K, Mass density=230.31 kg/m3 | 86.75
604.02 K, Mass density=224.53 kg/m3 | 91.83
604.02 K, Mass density=227.54 kg/m3 | 87.55
604.04 K, Mass density=214.83 kg/m3 | 80.85
604.09 K, Mass density=214.83 kg/m3 | 82.56
604.11 K, Mass density=224.53 kg/m3 | 94.23
604.11 K, Mass density=227.54 kg/m3 | 83.91
604.12 K, Mass density=230.31 kg/m3 | 81.87
604.19 K, Mass density=224.53 kg/m3 | 93.25
604.19 K, Mass density=227.54 kg/m3 | 84.67
604.2 K, Mass density=214.83 kg/m3 | 82.1
604.28 K, Mass density=214.83 kg/m3 | 79.51
604.28 K, Mass density=224.53 kg/m3 | 89.96
604.28 K, Mass density=227.54 kg/m3 | 86.4
604.31 K, Mass density=230.31 kg/m3 | 80.09
604.36 K, Mass density=224.53 kg/m3 | 91.15
604.43 K, Mass density=230.31 kg/m3 | 85.06
604.45 K, Mass density=224.53 kg/m3 | 90.84
604.52 K, Mass density=230.31 kg/m3 | 82.6
605.13 K, Mass density=329 kg/m3 | 85.88
605.22 K, Mass density=329 kg/m3 | 88.22

— the NIST ThermoML archive (doi:10.1007/s10765-009-0602-6)
